Molecular target: T1, D1 dopamine receptor (Rattus norvegicus, UniProt P18901)
T1 construct: The longest open reading frame in this cDNA codes for a 487 residue protein; expressed in transfected cells; host or cells: COS-7 cells (transient, plasmid pSRalpha-D1)
Assay type: cell-based
Conditions: agonist 1 uM, with 0.5 uM propranolol

T1 sequence (P18901 whole entry): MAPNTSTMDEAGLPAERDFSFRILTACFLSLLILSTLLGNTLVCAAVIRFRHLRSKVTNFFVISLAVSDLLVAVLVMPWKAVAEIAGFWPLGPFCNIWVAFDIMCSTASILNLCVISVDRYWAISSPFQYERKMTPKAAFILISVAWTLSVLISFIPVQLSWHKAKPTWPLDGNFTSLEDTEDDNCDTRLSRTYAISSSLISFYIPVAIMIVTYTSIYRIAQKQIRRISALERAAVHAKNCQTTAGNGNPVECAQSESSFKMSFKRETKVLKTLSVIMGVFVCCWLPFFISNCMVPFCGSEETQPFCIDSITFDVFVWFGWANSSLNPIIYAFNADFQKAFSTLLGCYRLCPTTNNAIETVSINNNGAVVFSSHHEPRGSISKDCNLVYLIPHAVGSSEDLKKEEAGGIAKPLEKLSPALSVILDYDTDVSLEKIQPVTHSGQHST

Structure (SMILES) | stimulation of cAMP accumulation (in words)
Oc1cc2c(cc1O)C(c1ccccc1)CNCC2 (stereo not drawn) [SKF-38393 (-)isomer, SKF-38393] | lower potency
CNC[C@H](O)c1ccc(O)c(O)c1 [epinephrine] | low potency relative to dopamine

Source: patent US5610282A (The United States of America as represented by the …, priority 1995, dated 1997)
